Where “and” joins values, the source holds several entries; their conditions need not be identical. Identical values can stand only once. Toxic doses and inconclusive results are not listed.
System: BDF1 mice, P388/ADR leukemia ip, median survival T/C
Assay: NCI In Vivo Anticancer Drug Screen. Data for tumor model P388 Leukemia resistant to Adriamycin; NSC 123127, Developed at Scr 06 and 41 (intraperitoneal) in B6D2F1 (BDF1) mice
Settings: endpoint: median survival time, higher = longer survival
Experimental: The antitumor activity of compounds was measured in mice bearing transplantable tumors. Survival or tumor size were measured and the results are expressed as the measurement made in the treated group (T) divided by the measurement made in the vehicle treated control group (C). The tumor model used in this assay is P388 Leukemia resistant to Adriamycin; NSC 123127, Developed at Scr 06 and 41 (intraperitoneal) in B6D2F1 (BDF1) mice

[1] = dose: 1.73 mg/kg/injection, schedule: Q04DX003 (ip), vehicle: water
[2] = dose: 2.88 mg/kg/injection, schedule: Q04DX003 (ip), vehicle: water
[3] = dose: 3.0 mg/kg/injection, schedule: Q04DX003 (ip), vehicle: water
[4] = dose: 4.8 mg/kg/injection, schedule: Q04DX003 (ip), vehicle: water
[5] = dose: 18.0 mg/kg/injection, schedule: Q04DX003 (ip), vehicle: saline
[6] = dose: 30.0 mg/kg/injection, schedule: Q04DX003 (ip), vehicle: saline
[7] = dose: 0.65 mg/kg/injection, schedule: Q04DX003 (ip), vehicle: saline
[8] = dose: 1.8 mg/kg/injection, schedule: Q04DX003 (ip), vehicle: saline
[9] = dose: 3.0 mg/kg/injection, schedule: Q04DX003 (ip), vehicle: saline

COc1cccc2c1C(=O)c1c(O)c3c(c(O)c1C2=O)C[C@@](O)(C(=O)CO)C[C@@H]3OC1CC(N)C(O)C(C)O1 (some centres undefined)
T/C (dose: 0.65 mg/kg/injection, schedule: Q01DX009 (ip), vehicle: saline): 107 % of control | T/C (dose: 1.08 mg/kg/injection, schedule: Q01DX009 (ip), vehicle: saline): 109 % of control | T/C (dose: 1.3 mg/kg/injection, schedule: Q04DX003 (ip), vehicle: saline): 112 % of control | T/C (dose: 1.3 mg/kg/injection, schedule: Q04DX003 (ip), vehicle: water): 102 % of control and 115 % of control | T/C (dose: 1.5 mg/kg/injection, schedule: Q04DX003 (ip), vehicle: water): 100 % of control | T/C [1]: 116 % of control | T/C (dose: 1.8 mg/kg/injection, schedule: Q01DX009 (ip), vehicle: saline): 110 % of control | T/C (dose: 2.16 mg/kg/injection, schedule: Q04DX003 (ip), vehicle: saline): 109 % of control | T/C (dose: 2.16 mg/kg/injection, schedule: Q04DX003 (ip), vehicle: water): 99 % of control and 120 % of control and 102 % of control | T/C [2]: 124 % of control | T/C (dose: 3.0 mg/kg/injection, schedule: Q01DX009 (ip), vehicle: saline): 96 % of control | T/C [3]: 100 % of control | T/C (dose: 3.6 mg/kg/injection, schedule: Q04DX003 (ip), vehicle: saline): 120 % of control | T/C (dose: 3.6 mg/kg/injection, schedule: Q04DX003 (ip), vehicle: water): 115 % of control and 122 % of control and 100 % of control | T/C [4]: 103 % of control | T/C (dose: 6.0 mg/kg/injection, schedule: Q04DX003 (ip), vehicle: water): 99 % of control [middle of 4 runs] | T/C (dose: 10.0 mg/kg/injection, schedule: Q04DX003 (ip), vehicle: water): 98 % of control | T/C (dose: 66.7 mg/kg/injection, schedule: Q04DX003 (ip), vehicle: water): 96 % of control

CCCCCCCC(=O)OCC(=O)[C@]1(O)Cc2c(O)c3c(c(O)c2[C@@H](OC2CC(N)C(O)C(C)O2)C1)C(=O)c1c(OC)cccc1C3=O (some centres undefined)
T/C [2]: 121 % of control

COc1cccc2c1C(=O)c1c(O)c3c(c(O)c1C2=O)CC(O)(C(=O)CO)CC3OC1CC(N)C(O)C(C)O1 (centres undefined)
T/C (dose: 1.73 mg/kg/injection, schedule: Q01DX004 (ip), vehicle: water): 103 % of control | T/C (dose: 6.48 mg/kg/injection, schedule: Q04DX003 (ip), vehicle: saline): 107 % of control | T/C (dose: 10.8 mg/kg/injection, schedule: Q04DX003 (ip), vehicle: saline): 93 % of control | T/C [5]: 106 % of control | T/C [6]: 94 % of control

CC[C@]1(O)C[C@H]2CN(CCc3c([nH]c4ccccc34)[C@@](C(=O)OC)(c3cc4c(cc3OC)N(C=O)[C@H]3[C@@](O)(C(=O)OC)[C@H](OC(C)=O)[C@]5(CC)C=CCN6CC[C@]43[C@@H]65)C2)C1
T/C (dose: 0.5 mg/kg/injection, schedule: Q04DX003 (ip), vehicle: saline): 92 % of control | T/C [7]: 111 % of control | T/C (dose: 1.0 mg/kg/injection, schedule: Q04DX003 (ip), vehicle: saline): 92 % of control | T/C [8]: 95 % of control | T/C [9]: 87 % of control | T/C (dose: 389.0 micrograms/kg/injection, schedule: Q04DX003 (ip), vehicle: saline): 109 % of control | T/C (dose: 432.0 micrograms/kg/injection, schedule: Q04DX003 (ip), vehicle: saline): 113 % of control | T/C (dose: 648.0 micrograms/kg/injection, schedule: Q04DX003 (ip), vehicle: saline): 112 % of control | T/C (dose: 720.0 micrograms/kg/injection, schedule: Q04DX003 (ip), vehicle: saline): 107 % of control | T/C (dose: 1080.0 micrograms/kg/injection, schedule: Q04DX003 (ip), vehicle: saline): 110 % of control | T/C (dose: 1200.0 micrograms/kg/injection, schedule: Q04DX003 (ip), vehicle: saline): 101 % of control | T/C (dose: 1800.0 micrograms/kg/injection, schedule: Q04DX003 (ip), vehicle: saline): 107 % of control

CCC1(O)CC2CN(CCc3c([nH]c4ccccc34)C(C(=O)OC)(c3cc4c(cc3OC)N(C)C3C(O)(C(N)=O)C(O)C5(CC)C=CCN6CCC43C65)C2)C1 (centres undefined) (tested in a mixture with another compound)
T/C [7]: 107 % of control | T/C (dose: 1.08 mg/kg/injection, schedule: Q04DX003 (ip), vehicle: saline): 111 % of control | T/C [8]: 101 % of control | T/C [9]: 86 % of control

COc1cc(NS(C)(=O)=O)ccc1Nc1c2ccccc2nc2ccccc12
T/C (dose: 3.6 mg/kg/injection, schedule: Q04DX003 (ip), vehicle: other): 123 % of control | T/C (dose: 5.4 mg/kg/injection, schedule: Q04DX003 (ip), vehicle: clinical formulation): 106 % of control | T/C (dose: 9.0 mg/kg/injection, schedule: Q04DX003 (ip), vehicle: clinical formulation): 114 % of control

CCCCC(=O)OCC(=O)[C@]1(O)Cc2c(O)c3c(c(O)c2[C@@H](OC2CC(NC(=O)C(F)(F)F)C(O)C(C)O2)C1)C(=O)c1c(OC)cccc1C3=O (some centres undefined)
T/C (dose: 13.0 mg/kg/injection, schedule: Q01DX004 (ip), vehicle: saline with Tween-80): 105 % of control | T/C (dose: 15.1 mg/kg/injection, schedule: Q04DX003 (ip), vehicle: other): 120 % of control | T/C (dose: 21.0 mg/kg/injection, schedule: Q01DX004 (ip), vehicle: saline with Tween-80): 113 % of control | T/C (dose: 25.2 mg/kg/injection, schedule: Q04DX003 (ip), vehicle: other): 119 % of control | T/C (dose: 42.0 mg/kg/injection, schedule: Q04DX003 (ip), vehicle: other): 122 % of control | T/C (dose: 70.0 mg/kg/injection, schedule: Q04DX003 (ip), vehicle: other): 155 % of control

CO[C@H](C(=O)[C@@H](O)[C@@H](C)O)[C@@H]1Cc2cc3cc(OC4CC(OC5CC(O)C(O)C(C)O5)C(O)C(C)O4)c(C)c(O)c3c(O)c2C(=O)[C@H]1OC1CC(OC2CC(OC3CC(C)(O)C(O)C(C)O3)C(O)C(C)O2)C(O)C(C)O1 (some centres undefined)
T/C (dose: 0.32 mg/kg/injection, schedule: Q01DX005 (ip), vehicle: water): 91 % of control | T/C (dose: 0.54 mg/kg/injection, schedule: Q01DX005 (ip), vehicle: water): 95 % of control | T/C (dose: 0.65 mg/kg/injection, schedule: Q04DX003 (ip), vehicle: water): 89 % of control

O=c1[nH]cc(F)c(=O)[nH]1
T/C (dose: 21.6 mg/kg/injection, schedule: Q04DX003 (ip), vehicle: saline): 150 % of control | T/C (dose: 36.0 mg/kg/injection, schedule: Q04DX003 (ip), vehicle: saline): 174 % of control | T/C (dose: 60.0 mg/kg/injection, schedule: Q04DX003 (ip), vehicle: saline): 192 % of control

CC[C@@]1(O)C[C@H](OC2CC(N(C)C)C(OC3CC(O)C(OC4CC(O)C(O)C(C)O4)C(C)O3)C(C)O2)c2c(cc3c(c2O)C(=O)c2c(O)ccc(O)c2C3=O)[C@H]1C(=O)OC (some centres undefined)
T/C (dose: 1.08 mg/kg/injection, schedule: Q04DX003 (ip), vehicle: water): 106 % of control | T/C (dose: 1.8 mg/kg/injection, schedule: Q04DX003 (ip), vehicle: water): 109 % of control | T/C [3]: 120 % of control

NC(CSC(c1ccccc1)(c1ccccc1)c1ccccc1)C(=O)O (centres undefined)
T/C (dose: 24.0 mg/kg/injection, schedule: Q01DX009 (ip), vehicle: other): 100 % of control | T/C (dose: 40.0 mg/kg/injection, schedule: Q01DX009 (ip), vehicle: other): 106 % of control

COC1C(O)C(C)OC(OC2C(Oc3cccc4c(O)c5c(=O)oc6ccc(C)c7c(=O)oc(c34)c5c67)OC(C)C(O)C2O)C1O (centres undefined)
T/C (dose: 43.2 mg/kg/injection, schedule: Q04DX003 (ip), vehicle: Klucel (hydroxypropylcellulose) (HPC)): 87 % of control

CCC1(O)CC(OC2CC(N(C)C)C(OC3CC(O)C(OC4CCC(=O)C(C)O4)C(C)O3)C(C)O2)c2c(cc3c(c2O)C(=O)c2c(O)ccc(O)c2C3=O)C1C(=O)OC (centres undefined)
T/C [1]: 105 % of control | T/C [2]: 107 % of control | T/C [4]: 119 % of control

COc1cccc2c1C(=O)c1c(O)c3c(c(O)c1C2=O)C[C@@](O)(C(C)=O)C[C@@H]3OC1CC(N)C(O)C(C)O1 (some centres undefined)
T/C [1]: 122 % of control | T/C [2]: 114 % of control | T/C [4]: 121 % of control | T/C (dose: 8.0 mg/kg/injection, schedule: Q04DX003 (ip), vehicle: water): 104 % of control and 107 % of control

COC(=O)[C@@]12OC[C@]34[C@H]([C@@H](O)[C@@H]1O)[C@@]1(C)CC(=O)C(O)=C(C)[C@@H]1C[C@H]3OC(=O)[C@H](OC(=O)/C=C(\C)C(C)C)[C@@H]24
T/C (dose: 0.65 mg/kg/injection, schedule: Q04DX003 (ip), vehicle: saline + alcohol): 113 % of control | T/C (dose: 1.08 mg/kg/injection, schedule: Q04DX003 (ip), vehicle: saline + alcohol): 93 % of control and 97 % of control | T/C (dose: 1.8 mg/kg/injection, schedule: Q04DX003 (ip), vehicle: saline + alcohol): 86 % of control and 90 % of control

CC[C@](O)(C(=O)O)c1cc2n(c(=O)c1CO)Cc1cc3ccccc3nc1-2
T/C [5]: 183 % of control | T/C [6]: 209 % of control | T/C (dose: 50.0 mg/kg/injection, schedule: Q04DX003 (ip), vehicle: saline): 206 % of control
